Each structure is given as a SMILES string.

Consider four molecules from PMC3038857, “Using Nuclear Receptor Activity to Stratify Hepatocarcinogens” (PLoS ONE, 2011).

What all share (format): cell-based
One series concerns the target T1, RXRa (RXRA) (Homo sapiens, UniProt P19793).
T1 sequence (P19793 227-462 limits assumed): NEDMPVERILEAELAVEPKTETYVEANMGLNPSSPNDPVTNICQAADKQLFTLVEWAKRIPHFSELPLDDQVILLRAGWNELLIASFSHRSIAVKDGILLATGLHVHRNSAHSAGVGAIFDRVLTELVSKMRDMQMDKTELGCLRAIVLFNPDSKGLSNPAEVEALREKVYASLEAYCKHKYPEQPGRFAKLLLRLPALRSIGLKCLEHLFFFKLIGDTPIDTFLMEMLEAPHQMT
Briefly: NCGC_RXRa_Agonist: GAL4 BLAM Reporter gene assay: RXRa. The note with it: agonist mode; scale not given, looks like -log10 of molar active concentration; 0 = no activity. The method, then: These assays measure binding constants and enzyme inhibition values for nuclear receptors. The targets include [drawing 67] , [drawing 68] , [drawing 69] , [drawing 70] , [drawing 71] , [drawing 72] , [drawing 73] , [drawing 74] , [drawing 75] and [drawing 76] . Each of the nuclear receptor targets was measured in agonist mode. Assays were run at the NIH Chemical Genomics Center (Rockville, MD).
Cell-based HTS Assays: These assays measuring binding constants and enzyme inhibition values for nuclear receptors. The targets include AR, ER, FXR, LXR, PPARα, PPARδ, PPARγ, RXRα, RXRβ and PXR. Each of the nuclear receptor targets was measured in both agonist and antagonist mode, but the antagonist data is still undergoing analysis due to possible interference between cytotoxicity and assay activity, so antagonist mode data were not used in the present analysis. Assays were run at the NIH Chemical Genomics Center (Rockville, MD) as part of the Tox21 collaboration. […] The R^2 was required to be ≥0.5. Values where only the highest concentration exceeded 50% activity were excluded to eliminate weak or false positives. Detailed description of the methods, data and analysis methods for this dataset will be presented in a separate publication.
On the technique in general: A reporter such as luciferase makes a cellular process visible.

Series [1] addresses T2, AHR (aryl hydrocarbon receptor) (Homo sapiens, UniProt P35869).
T2 construct: endogenous in cells; host or cells: HepG2
T2 sequence (P35869 11-848): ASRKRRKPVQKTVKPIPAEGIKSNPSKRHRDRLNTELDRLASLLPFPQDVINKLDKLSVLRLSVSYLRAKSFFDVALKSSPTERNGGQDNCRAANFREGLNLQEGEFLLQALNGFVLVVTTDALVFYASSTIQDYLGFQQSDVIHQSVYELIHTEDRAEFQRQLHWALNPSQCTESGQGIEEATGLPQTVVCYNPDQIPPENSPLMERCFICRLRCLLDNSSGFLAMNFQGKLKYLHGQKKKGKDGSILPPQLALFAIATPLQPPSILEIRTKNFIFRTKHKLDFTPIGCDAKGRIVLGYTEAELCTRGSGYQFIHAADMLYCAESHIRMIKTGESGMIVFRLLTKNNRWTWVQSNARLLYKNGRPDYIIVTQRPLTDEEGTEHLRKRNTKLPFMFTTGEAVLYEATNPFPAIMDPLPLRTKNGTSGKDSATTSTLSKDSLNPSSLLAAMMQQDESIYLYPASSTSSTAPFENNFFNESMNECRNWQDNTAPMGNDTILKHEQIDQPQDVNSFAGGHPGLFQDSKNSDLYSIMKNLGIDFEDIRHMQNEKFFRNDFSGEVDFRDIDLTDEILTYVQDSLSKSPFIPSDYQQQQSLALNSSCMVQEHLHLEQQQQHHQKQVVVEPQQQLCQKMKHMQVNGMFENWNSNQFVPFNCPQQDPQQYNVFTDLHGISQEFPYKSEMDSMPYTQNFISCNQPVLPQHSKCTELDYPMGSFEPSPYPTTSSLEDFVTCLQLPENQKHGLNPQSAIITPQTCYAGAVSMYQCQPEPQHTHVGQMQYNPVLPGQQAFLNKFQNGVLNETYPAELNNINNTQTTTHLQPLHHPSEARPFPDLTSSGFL
Briefly: ATG_Ahr_CIS: Factorial reporter gene assay (multiplexed transcription reporter, HepG2). On the set-up: scale not given here. Particulars: HepG2; scale not given, looks like -log10 of molar active concentration; 0 = no activity. A digest of the protocol: (§1)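 Seven concentrations per chemical, three-fold dilutions down from the MTC, were tested in HepG2 hepatoma cells. Those cells carried a multiple reporter transcription unit library, read either as cis transcription-factor-site reporters or as a trans mammalian one-hybrid panel for nuclear receptors.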

In series [2] the target is T3, ESR1 (estrogen receptor 1) (Homo sapiens, UniProt P03372).
T3 construct: expressed in transfected cells; host or cells: HepG2
The experiment in a line: ATG_ERa_TRANS: Factorial reporter gene assay (HepG2). The note with it: HepG2; scale not given, looks like -log10 of molar active concentration; 0 = no activity. A digest of the protocol:
as §1

The next series deals with T4, PXR (NR1I2) (Homo sapiens, UniProt O75469).
T4 sequence (O75469 1-434): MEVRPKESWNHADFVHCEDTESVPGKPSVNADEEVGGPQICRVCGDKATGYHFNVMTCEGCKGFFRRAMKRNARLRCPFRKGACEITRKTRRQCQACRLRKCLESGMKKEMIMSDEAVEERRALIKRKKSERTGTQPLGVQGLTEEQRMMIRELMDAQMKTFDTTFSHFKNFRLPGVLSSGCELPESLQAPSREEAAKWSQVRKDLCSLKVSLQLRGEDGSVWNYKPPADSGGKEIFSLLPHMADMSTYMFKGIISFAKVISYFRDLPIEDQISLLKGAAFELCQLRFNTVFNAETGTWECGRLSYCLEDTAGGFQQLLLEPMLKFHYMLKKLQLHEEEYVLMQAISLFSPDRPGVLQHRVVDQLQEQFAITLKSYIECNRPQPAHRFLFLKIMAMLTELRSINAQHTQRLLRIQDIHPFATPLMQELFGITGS
The experiment in a line: ATG_PXRE_CIS: Factorial reporter gene assay (HepG2). Further details: endogenous in cells; host or cells: HepG2. The note with it: HepG2; scale not given, looks like -log10 of molar active concentration; 0 = no activity. A digest of the protocol: as §1

T3 sequence (P03372 whole entry): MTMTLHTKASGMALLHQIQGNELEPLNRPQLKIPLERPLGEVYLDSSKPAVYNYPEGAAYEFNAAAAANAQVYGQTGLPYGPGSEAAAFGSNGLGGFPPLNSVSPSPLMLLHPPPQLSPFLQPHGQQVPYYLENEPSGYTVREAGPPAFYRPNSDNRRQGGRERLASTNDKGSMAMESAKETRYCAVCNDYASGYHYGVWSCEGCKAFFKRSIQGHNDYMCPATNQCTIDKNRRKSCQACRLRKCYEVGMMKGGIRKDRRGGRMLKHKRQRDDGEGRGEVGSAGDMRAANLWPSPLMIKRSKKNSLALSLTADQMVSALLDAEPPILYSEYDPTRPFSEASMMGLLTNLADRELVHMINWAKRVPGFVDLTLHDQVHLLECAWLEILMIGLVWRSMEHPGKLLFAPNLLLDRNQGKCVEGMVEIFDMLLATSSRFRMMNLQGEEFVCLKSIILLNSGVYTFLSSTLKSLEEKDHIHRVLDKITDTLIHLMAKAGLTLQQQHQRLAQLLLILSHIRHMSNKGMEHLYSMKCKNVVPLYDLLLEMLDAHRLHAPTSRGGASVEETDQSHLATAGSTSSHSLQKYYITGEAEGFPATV

The molecule `N#Cc1c(Cl)c(Cl)c(Cl)c(C#N)c1Cl` [r58] registered an NCGC_RXRa_Agonist at RXRa (RXRA) of 0. Moreover, the ATG_Ahr_CIS in series [1] was 0. In addition, in series [2], the ATG_ERa_TRANS worked out at 0. Further, the ATG_PXRE_CIS at PXR (NR1I2) came out at 6.796.
On to `CC(C)OC(=O)Nc1cccc(Cl)c1` [r59], for which the NCGC_RXRa_Agonist at RXRa (RXRA) worked out at 0. The molecule also displayed an ATG_Ahr_CIS in series [1] of 0. This molecule also yielded an ATG_ERa_TRANS in series [2] of 0. For the same molecule, the ATG_PXRE_CIS at PXR (NR1I2) worked out at 4.658.
Molecule `COc1nc(C)nc(NC(=O)NS(=O)(=O)c2ccccc2Cl)n1` [r62] showed an NCGC_RXRa_Agonist on RXRa (RXRA) of 0. In addition, the ATG_Ahr_CIS in series [1] is 0. The ATG_ERa_TRANS in series [2] turned out to be 0. In addition, on PXR (NR1I2), the ATG_PXRE_CIS was 4.495.
In turn, `COc1nc(C)nc(NC(=O)NS(=O)(=O)c2ccccc2Cl)n1` [r63] had an NCGC_RXRa_Agonist on RXRa (RXRA) of 0. In addition, the ATG_Ahr_CIS in series [1] was found to be 0. In series [2], the ATG_ERa_TRANS is recorded as 0. Moreover, on PXR (NR1I2), the ATG_PXRE_CIS amounted to 0.
